Test results taken from patent publication US10794932B2, “Biosensor for the detection of a biological target, and method for manufacturing the same” (The Governing Council of The University of Toronto, priority 2016, dated 2020).

What was measured:
Format in all cases: binding
TLR2 = target: T1, TLR2 (Mus musculus, UniProt Q9QUN7); assay: TLR multiplex sensor, EIS film resistance before/after exposure (Example 5), TLR2 sensor; details: exposure 20 minutes
T1 sequence (Q9QUN7 25-587): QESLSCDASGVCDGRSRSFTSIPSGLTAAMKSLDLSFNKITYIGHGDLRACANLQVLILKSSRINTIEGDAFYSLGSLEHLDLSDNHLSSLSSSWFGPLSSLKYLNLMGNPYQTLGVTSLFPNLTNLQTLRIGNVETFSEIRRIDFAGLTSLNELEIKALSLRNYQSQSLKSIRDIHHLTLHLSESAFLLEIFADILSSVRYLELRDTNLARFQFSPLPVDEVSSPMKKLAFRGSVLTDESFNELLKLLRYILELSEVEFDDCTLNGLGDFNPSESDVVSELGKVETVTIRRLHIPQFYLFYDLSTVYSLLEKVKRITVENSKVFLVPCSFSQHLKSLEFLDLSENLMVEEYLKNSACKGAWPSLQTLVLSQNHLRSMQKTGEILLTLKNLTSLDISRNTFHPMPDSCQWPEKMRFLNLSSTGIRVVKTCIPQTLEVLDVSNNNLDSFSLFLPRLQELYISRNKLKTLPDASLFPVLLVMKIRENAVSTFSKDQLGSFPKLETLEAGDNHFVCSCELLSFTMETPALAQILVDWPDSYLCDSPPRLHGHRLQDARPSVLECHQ
Protocol: For each multiplex TLR sensor, 5 separate gold electrodes were used for binding TLR 1 to 5. The 5 modified electrodes/sensors were exposed to the analyte solution and evaluated one by one using potentiostats and electrochemical cells.
The preparation of each TLR biosensor was evaluated using EIS. It is understood that cyclic voltammetry as well as electrochemical impedance microscopy can also be used for monitoring the modification. […] Ethanolamine was then applied to deactivate unreacted LPA. Due to dissociation of unspecific absorbed TLR, the Rct dropped slightly. Experimental curves were evaluated using a model to obtain the Rct values, which can be seen at FIG. 9. Measurements from at least triplicated samples prepared were used to obtain statistic information.
The TLR1 sensor was exposed to an E. coli K12 whole-cell buffer solution for 20 minutes. The sensor was then removed, washed thoroughly and characterized in the electrochemical cell measuring the Rct again. The difference in Rct before and after exposure is the response triggered by the target. The same protocol was carried out for all remaining TLRs (TLRs 2-5) to obtain one set of pattern for E. coli K12 (FIGS. 10b to 10e). Multiple sets were investigated for statistical relevance. […]

rmTLR3 = target: T2, rmTLR3 (Mus musculus, UniProt Q99MB1); assay: Selectivity test, TLR3 sensor, EIS; details: 10 μM
T2 construct: purchased
T2 sequence (Q99MB1 26-905): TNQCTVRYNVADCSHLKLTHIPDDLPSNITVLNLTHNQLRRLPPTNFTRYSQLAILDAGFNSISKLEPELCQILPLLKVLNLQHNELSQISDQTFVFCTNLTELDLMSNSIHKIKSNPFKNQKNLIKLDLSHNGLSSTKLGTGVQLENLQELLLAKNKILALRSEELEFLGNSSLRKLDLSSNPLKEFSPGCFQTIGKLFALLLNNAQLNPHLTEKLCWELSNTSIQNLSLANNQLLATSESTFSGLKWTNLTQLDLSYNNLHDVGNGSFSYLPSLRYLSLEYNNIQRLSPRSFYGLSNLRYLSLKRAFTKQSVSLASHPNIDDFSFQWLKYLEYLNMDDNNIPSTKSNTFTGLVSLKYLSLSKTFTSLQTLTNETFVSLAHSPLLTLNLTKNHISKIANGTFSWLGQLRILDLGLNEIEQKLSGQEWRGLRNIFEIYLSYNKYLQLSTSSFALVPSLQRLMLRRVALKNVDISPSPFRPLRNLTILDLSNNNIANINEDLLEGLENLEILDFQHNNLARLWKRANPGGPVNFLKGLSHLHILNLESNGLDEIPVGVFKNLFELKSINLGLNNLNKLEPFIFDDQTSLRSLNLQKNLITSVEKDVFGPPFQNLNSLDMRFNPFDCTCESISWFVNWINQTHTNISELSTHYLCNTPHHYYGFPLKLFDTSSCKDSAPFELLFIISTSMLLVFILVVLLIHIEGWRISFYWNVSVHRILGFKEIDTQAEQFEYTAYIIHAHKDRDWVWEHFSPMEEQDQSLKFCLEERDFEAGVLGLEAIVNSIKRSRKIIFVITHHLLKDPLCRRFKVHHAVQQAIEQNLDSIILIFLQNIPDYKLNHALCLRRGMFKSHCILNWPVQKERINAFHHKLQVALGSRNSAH

rmTLR4/MD-2 = target: T3, rmTLR4/MD-2 (Mus musculus, UniProt Q9JHF9+Q9QUK6); assay: Selectivity test, TLR4/MD-2 sensor, EIS; details: 10 μM
T3 construct: purchased
T3 sequence (Q9QUK6 26-638 limits assumed): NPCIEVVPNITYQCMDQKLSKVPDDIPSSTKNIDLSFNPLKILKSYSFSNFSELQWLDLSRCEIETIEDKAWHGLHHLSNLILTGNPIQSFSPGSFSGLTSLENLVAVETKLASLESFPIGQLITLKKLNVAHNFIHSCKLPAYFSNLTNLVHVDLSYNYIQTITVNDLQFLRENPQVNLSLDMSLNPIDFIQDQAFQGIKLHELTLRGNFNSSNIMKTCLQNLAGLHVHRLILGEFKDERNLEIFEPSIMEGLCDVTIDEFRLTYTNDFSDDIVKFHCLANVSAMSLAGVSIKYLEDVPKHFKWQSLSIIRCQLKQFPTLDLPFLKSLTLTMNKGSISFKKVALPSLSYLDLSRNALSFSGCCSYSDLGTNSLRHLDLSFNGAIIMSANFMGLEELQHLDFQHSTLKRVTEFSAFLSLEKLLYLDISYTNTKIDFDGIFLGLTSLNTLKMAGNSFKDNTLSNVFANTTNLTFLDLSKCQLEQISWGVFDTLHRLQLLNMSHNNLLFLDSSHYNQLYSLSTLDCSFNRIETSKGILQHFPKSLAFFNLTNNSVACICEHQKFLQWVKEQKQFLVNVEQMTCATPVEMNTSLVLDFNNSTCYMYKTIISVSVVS
T3 sequence (Q9JHF9 19-160): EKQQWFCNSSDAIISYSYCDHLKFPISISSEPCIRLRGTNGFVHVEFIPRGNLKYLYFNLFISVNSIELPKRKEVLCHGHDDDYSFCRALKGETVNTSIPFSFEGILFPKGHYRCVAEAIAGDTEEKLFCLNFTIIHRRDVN

**Q.** Which results are given for Pam3CSK4?
**A.** delta Rct % (TLR2): 35%; electrochemical response (selectivity test) (rmTLR3): slight signal variations; electrochemical response (selectivity test) (rmTLR4/MD-2): slight signal variations
